Structures can show the parent of a compound that is named as a salt. Where two headings read alike, the source gives them in different places.
Experiments:
[1] = molecular target: T1, HEK293 cells overexpressing human Rac1b (Homo sapiens, UniProt P63000); assay: Rac1b activation assay (G-LISA); type: cell-based
T1 construct: expressed in transfected cells; host or cells: HEK293
Method: Rac1b activation assay: HEK293 cells overexpressing human Rac1b were plated in 100 mm diameter dishes and grown for 5 days in MEM medium supplemented with 10% FBS, L-Glutamine and antibiotics. Cells were then treated with 50 μM of compounds or the solvent for 5 minutes, and the GTP loading of Rac1b was measured using a Rac Activation Assay Kit (Cytoskeleton) according to manufacturer's recommendations. Briefly, this assay uses a 96-well plate coated with RBD domain of Rho-family effector proteins. […] The signal is then developed with OPD reagent.

[2] = molecular target: T2, Rac1 activated by DH/PH domain of Guanine nucleotide Exchange Factor Tiam1 (Rac1/Tiam1) (Homo sapiens, UniProt P63000); assay: Nucleotide binding assay: BODIPY-GTP binding to Rac1 activated by Tiam1 DH/PH; type: biochemical; conditions: for inhibition at 50 µM: read-out: Rac1 % inhibition of BODIPY-GTP binding
T2 construct: made in house; host or cells: E. coli BL21 Codon+RIL
Method: (§1) Fluorescence of GTP analog BODIPY-GTP increases when it binds to small G proteins. This property was used to assess ability of compounds to inhibit nucleotide binding to Rac1, Rac1b and Cdc42. 2 μM GST-Rac1 and 6 μg His6-Tiam1-DH/PH were diluted in a buffer containing 20 mM Tris, 50 mM NaCl, and 1 mM MgCl2. This mixture was loaded in a 96-well plate. Fluorescence recording were started (λEx: 485 nm; λEm: 538 nm) using a spectrofluorimeter (Fluoroskan; Thermolab Systems). Assay was initiated by the addition of 2 μM BODIPY-GTP with or without various doses of test compound. Fluorescence values were recorded, and data were processed as follows: background fluorescence (unbound BODIPY-GTP) was retrieved from fluorescence values.
(§2) This assay allows determining whether compounds can inhibit the binding of a fluorescent nucleotide to recombinant small G proteins of interest. The effect of various alkaloid compounds on binding of BODIPY-GTP to Rac1 activated by DH/PH domain of Guanine nucleotide Exchange Factor Tiam1 (Rac1/Tiam1), Rac1b and Cdc42 is described below.

Cdc42 = molecular target: T3, Cdc42 (Homo sapiens, UniProt P60953); assay: Nucleotide binding assay: BODIPY-GTP binding to Cdc42; type: biochemical; conditions: for inhibition at 50 µM: read-out: Cdc42 % inhibition of BODIPY-GTP binding; for IC50: dose-response study
T3 construct: GST (N); made in house; host or cells: E. coli BL21 Codon+RIL
T3 sequence (P60953 whole entry, species assumed): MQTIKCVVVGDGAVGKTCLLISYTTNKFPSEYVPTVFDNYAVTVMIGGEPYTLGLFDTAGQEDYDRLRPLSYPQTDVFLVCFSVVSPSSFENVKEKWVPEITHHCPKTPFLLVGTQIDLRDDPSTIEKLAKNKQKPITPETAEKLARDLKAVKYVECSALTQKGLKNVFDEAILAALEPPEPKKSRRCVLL
Method: as §1, §2

Rac1b = molecular target: T4, Rac1b (Homo sapiens, UniProt P63000); assay: Nucleotide binding assay: BODIPY-GTP binding to Rac1b; type: biochemical; conditions: for inhibition at 50 µM: read-out: Rac1b % inhibition of BODIPY-GTP binding; for IC50: dose-response study
T4 construct: GST (N); made in house; host or cells: E. coli BL21 Codon+RIL
Method: as §1, §2

HCT116 cell line = assay: Soft agar assay (anchorage-independent colony formation); type: cell-based; conditions: HCT116, 7 days
Description: Colony formation in soft agar is the most widely used assay to evaluate anchorage-independent growth potential and represents one of the best in vitro assays that correlates strongly with in vivo tumorigenic cell growth potential. Normal cells require adherence and spreading onto a solid substratum in order to remain viable and proliferate. In contrast, cancer cell line HCT116 (ATCC clone number CCL-247) lost this requirement and therefore can form proliferating colonies of cells when suspended in a semisolid agar medium. The assay was performed in 24-well plates, using duplicates wells for each compound concentration. Briefly, a 0.5% Bacto™ Agar (BD Biosciences) bottom layer (prepared in HCT116 complete growth medium supplemented or not with the tested compound) was poured first and allowed to harden (0.3 ml per well). HCT116 were trypsinized to generate a uniform single cell suspension. Five×10^3 cells per well were resuspended in 0.3% agar supplemented with complete growth medium, with or without several compound concentrations to form the top layer (0.3 ml per well). HCT116 were allowed to grow for 7 days in these conditions and then analysed for colonies formation. Analysis was performed from pictures taken under a microscope that are representative from 2 different fields of the well. For each field, 2 different focal plans were taken and were merged using ImageJ software. The number of colonies were scored and colonies' size were measured. IC50 were determined for the number and size of colonies using GraphPad Prism (GraphPad) software. Data are mean values of 2 to 3 independent experiments.

[3] = HEK293, 50 μM, 5 minutes, GTP loading of Rac1b, read-out: G-LISA % inhibition @ 50 μM
[4] = final concentration of 50 μM, Rac1/Tiam1
[5] = Homo sapiens, HCT-116, 168 h, read-out: Soft agar assay IC50, Clone Number
[6] = Homo sapiens, HCT-116, 168 h, read-out: Soft agar assay IC50, Clone Size
[7] = dose-response study (1-2-5-10-25-50-75-100 μM)

Row | Compound | inhibition at 50 µM [2, 4] [%] | inhibition at 50 µM (Cdc42; final concentration of 50 μM) [%] | inhibition at 50 µM (Rac1b; final concentration of 50 μM) [%] | also measured
1 | COc1cc2cc(-c3cccc(C(C)=O)c3)nc(C)c2cc1OC [Compound 24, 1-(3-(6,7-Dimethoxy-1-methylisoquinolin-3-yl)phenyl)ethanone hydrochloride] | 18 ± 3 | 7 ± 2 | 27 ± 2 | inhibition at 50 µM [1, 3]: 19 ± 5%
2 | COc1cc2cc(-c3cccc(NS(C)(=O)=O)c3)nc(C)c2cc1OC [Compound 30, N-(3-(6,7-Dimethoxy-1-methylisoquinolin-3-yl)phenyl)methanesulfonamide hydrochloride] | 9 ± 3 | 4 ± 4 | 16 ± 2 | inhibition at 50 µM [1, 3]: 12 ± 2%
3 | O=c1cc(CN2CCOCC2)occ1OCCCCCSc1ccnc2cc(C(F)(F)F)ccc12 [EHT 1864, reference compound] |  |  |  | IC50 (HCT116 cell line; read-out: Soft agar assay IC50, Clone Number): 57.5 ± 4.5 µM; IC50 (HCT116 cell line; read-out: Soft agar assay IC50, Clone Size): 19.5 ± 2.5 µM
4 | COc1ccc2cc3[n+](cc2c1OC)CCc1cc(O)c(O)cc1-3 [Compound 4, 9,10-dimethoxy-5,6-dihydro-isoquino[3,2-a]isoquinolinylium-2,3-diol chloride] |  | 31 ± 9 |  | inhibition at 50 µM ([1]; HEK293, read-out: G-LISA % inhibition @ 50 μM): 30 ± 5%; IC50 ([2]; dose-response study): 58.6 ± 16.9 µM; inhibition at 50 µM [2]: 39 ± 2%; IC50 (Rac1b): 23.8 ± 2.9 µM; inhibition at 50 µM (Rac1b): 54 ± 2%
5 | C[n+]1cc2c(O)c(O)ccc2c2ccc3cc(O)c(O)cc3c21 [Compound 52, 2,3,7,8-Tetrahydroxy-5-methylbenzo[c]phenanthridinium chloride] |  |  |  | IC50 (Cdc42): 22 ± 2 µM; inhibition at 50 µM (Cdc42): 73 ± 4%; IC50 (HCT116 cell line; [5]): 9.8 ± 1.3 µM; IC50 (HCT116 cell line; [6]): 9.5 ± 0.4 µM
6 | COc1cc2cc(-c3cccc(N)c3)nc(C)c2cc1OC [Compound 28, 3-(6,7-Dimethoxy-1-methylisoquinolin-3-yl)aniline dihydrochloride] | 13 ± 2 | 3 ± 5 | 20 ± 2 | inhibition at 50 µM [1, 3]: 27 ± 4%
7 | COc1cc2cc(-c3ccc(O)c(O)c3)nc(C)c2cc1OC [Compound 26, 4-(6,7-Dimethoxy-1-methylisoquinolin-3-yl)benzene-1,2-diol hydrochloride] |  | 15 ± 1 |  | IC50 (HCT116 cell line; [5]): 14.8 ± 3.3 µM; IC50 (HCT116 cell line; [6]): 8.5 ± 0.9 µM
8 | COc1cc2cc(-c3ccc4ccccc4c3)nc(C)c2cc1OC.Cl [Compound 41, 6,7-Dimethoxy-1-methyl-3-(naphthalen-2-yl)isoquinolinylium chloride] |  |  |  | Cdc42 % inhibition of BODIPY-GTP binding (Cdc42; final concentration of 50 μM, 50 µM): 52 ± 4%; IC50 (HCT116 cell line; [5]): 70.7 ± 5.9 µM; IC50 (HCT116 cell line; [6]): 44.4 ± 4.5 µM
9 | COc1cc(-c2cc3cc(OC)c(OC)cc3c(C)n2)ccc1O [Compound 47, 4-(6,7-Dimethoxy-1-methylisoquinolin-3-yl)-2-methoxyphenol hydrochloride] | 15 ± 3 | 17 ± 1 | 18 ± 1 | inhibition at 50 µM [1, 3]: 13 ± 8%
10 | COc1cc2cc(-c3ccccc3NC(=O)N(C)C)nc(C)c2cc1OC [Compound 46, 3-(2-(6,7-Dimethoxy-1-methylisoquinolin-3-yl)phenyl)-1,1-dimethylurea hydrochloride] | 8 ± 3 | 2 | 9 ± 3 | 
11 | COc1cc2cc(-c3ccc4c(c3)OCO4)[n+](C)c(C)c2cc1OC [Compound 22, 3-(Benzo[d][1,3]dioxol-5-yl)-6,7-dimethoxy-1,2-dimethylisoquinolinium chloride] | 12 ± 2 | 14 ± 3 | 18 ± 2 | 
12 | COc1cc2cc(-c3cccc(N(S(C)(=O)=O)S(C)(=O)=O)c3)nc(C)c2cc1OC [Compound 29, N-(3-(6,7-Dimethoxy-1-methylisoquinolin-3-yl)phenyl)-N-(methylsulfonyl)methanesulfonamide hydrochloride] | -5 ± 2 | 2 ± 4 | -2 ± 2 | 
13 | COc1cc2c(cc1OC)-c1cc3ccc(OC)c(OC)c3c[n+]1CC2 [Compound 2, palmatine chloride, hydrate, reference compound] |  | 11 ± 2 |  | inhibition at 50 µM [2]: 15 ± 2%; inhibition at 50 µM (Rac1b): 19 ± 3%
14 | COc1cc2cc(-c3ccc(C)cc3)nc(C)c2cc1OC [Compound 43, 6,7-Dimethoxy-1-methyl-3-p-tolylisoquinolinylium chloride] | 19 ± 1 | 15 ± 2 | 17 ± 2 | 
15 | Oc1cc2c(cc1O)C1Cc3ccc(O)c(O)c3CN1CC2 (racemic) [Compound 16, (±)-5,8,13,13a-Tetrahydro-6H-isoquino[3,2-a]isoquinolinylium-2,3,9,10-tetraol hydrochloride] |  |  |  | inhibition at 50 µM (Cdc42): 4 ± 6%; IC50 (HCT116 cell line; [5]): 6.4 ± 1.3 µM; IC50 (HCT116 cell line; [6]): 6.2 ± 0.4 µM
16 | COc1ccc(-c2cc3cc(OC)c(OC)cc3c(C)n2)cc1 [Compound 40, 6,7-Dimethoxy-3-(4-methoxyphenyl)-1-methylisoquinolinylium chloride] | 15 ± 3 | 14 ± 1 | 17 ± 3 | 
17 | Cc1c2cc(O)c(O)cc2cc(-c2ccc(O)c(O)c2)[n+]1C [Compound 45, 3-(3,4-Dihydroxyphenyl)-6,7-dihydroxy-1,2-dimethylisoquinolinium chloride] | 22 ± 1 | 12 ± 1 | 36 ± 4 | 
18 | COc1ccc2c(c[n+](C)c3c4cc(O)c(O)cc4ccc23)c1OC [Compound 51, 2,3-Dihydroxy-7,8-dimethoxy-5-methylbenzo[c]phenanthridinium chloride] |  | 38 ± 2 |  | IC50 (Cdc42): 78 ± 3 µM; IC50 (HCT116 cell line; [5]): > 50 µM; IC50 (HCT116 cell line; [6]): 11.4 ± 1.9 µM
19 | COc1cc2cc(-c3ccccc3)[n+](C)cc2cc1OC [Compound 50, 6,7-Dimethoxy-2-methyl-3-phenylisoquinolinium chloride] | 3 ± 5 | 10 ± 6 | 10 ± 5 | 
20 | COc1cc2cc(-c3ccc4c(c3)OCO4)nc(C)c2cc1OC [Compound 21, 3-(Benzo[d][1,3]dioxol-5-yl)-6,7-dimethoxy-1-methylisoquinoline hydrochloride] | 13 ± 2 | 18 ± 2 | 12 ± 2 | 
21 | COc1ccc2cc3[n+](cc2c1OC)CCc1cc2c(cc1-3)OCO2 [Compound 1, Berberine chloride, reference compound] | 15 ± 2 | 8 ± 2 | 23 ± 2 | maximum inhibition on Rac1/Tiam1 [2, 7]: 19±1%; maximum inhibition on Rac1b (Rac1b; [7]): 29±1%
22 | COc1cc2cc(-c3ccc(O)c(O)c3)[n+](C)c(C)c2cc1OC [Compound 27, 3-(3,4-Dihydroxyphenyl)-6,7-dimethoxy-1,2-dimethylisoquinolinium chloride] | 6 ± 2 | 5 ± 2 | 17 ± 1 | 
23 | Cc1c2cc(O)c(O)cc2cc2c3cc(O)c(O)cc3cc[n+]12 [Compound 15, 8-Methyl-isoquino[3,2-a]isoquinolinylium-2,3,10,11-tetraol chloride] | 63 ± 4 | 70 ± 3 | 72 ± 4 | IC50 (Rac1b): 13.2 ± 4.3 µM

Reference: patent US20100120810A1, “COMPOUNDS AND METHODS FOR MODULATING RHO GTPASES” (priority 2007, published 2010)
